Values of other authors, collected in PMC7395068, “The evolution of strategies to minimise the risk of human drug-induced liver injury (DILI) in drug discovery and development” (Archives of Toxicology, 2020).
Read-outs that look alike come from different tables or passages of the source.

Assays:
[1] = tested on: HepG2 C3A spheroid, BSEP, Glu/Gal in HepG2 cells, bioactivation; details: cited from earlier work
[2] = tested on: THLE or HepG2 cells, isolated mitochondria, BSEP; details: In vitro Assay; ref Aleo 2019; cited from earlier work
[3] = cited from earlier work
[4] = tested on: THLE-Null and THLE-3A4 cells; details: In vitro Assay; ref Gustafsson 2014; cited from earlier work
[5] = ref Chen 2016; cited from earlier work
[6] = tested on: primary human hepatocytes, NIH3T3 fibroblasts, BSEP, CYP3A4; details: In vitro Assay; ref Schadt 2015; cited from earlier work
HepG2 cells [7] = details: In vitro Assay; ref Persson 2013; cited from earlier work
PHH spheroids = details: cited from earlier work; for hLiMTs ATP <20 x Cmax: In vitro Assay, ref Vorrink 2018
[8] = tested on: HepG2 cells, primary human hepatocytes; details: In vitro Assay; ref Garside 2014; cited from earlier work
[9] = tested on: isolated mouse liver mitochondria; details: In vitro Assay; ref Porceddu 2012; cited from earlier work
rBsep = details: In vitro Assay; ref Dawson 2012; cited from earlier work
PHH = details: In vitro Assay; ref Proctor 2017; cited from earlier work
hLiMTs = details: In vitro Assay; ref Proctor 2017; cited from earlier work
HepG2 cells [10] = details: In vitro Assay; ref O'Brien 2006; cited from earlier work
human hepatocytes = details: In vitro Assay; ref Xu 2008; cited from earlier work
[11] = In vitro Assay, ref Williams 2019

SMILES: CC(C)(C)NCC(O)c1ccc(O)c(CO)c1 (stereo not shown) [albuterol]
- Bayesian Machine Learning ([1]; ref Williams 2019): -VE
- Partition Hybrid HRM Score [2]: -VE
- Ro2 Hybrid HRM Score [2]: -VE
- In vivo DILI ([3]; ref Aleo 2019): -VE
- In vivo DILI ([3]; ref Proctor 2017): -VE
- In vivo DILI ([3]; ref Williams 2019): -VE

SMILES: CCCN(CCC)C(=O)Cc1c(-c2ccc(Cl)cc2)nc2ccc(Cl)cn12 [alpidem]
- THLE-Null [4]: -VE
- THLE-Null/3A4 [4]: -VE
- DILI +VE (5-8), DILI -VE (-4) [5]: +VE
- DILI severity category [5]: vMost-DILI-Concern
- Cellular toxicity (3T3 cells) [6]: -VE
- Combined Assay [6]: -VE
- GSH adduct HML [6]: +VE
- Hepatocyte cellular toxicity [6]: +VE
- MitoTox 3T3 [6]: -VE
- TDI CYP3A4 [6]: -VE
- hBSEP inhibition [6]: +VE
- Cluser analysis (HepG2 cells [7]): +VE
- Structural based (HCI) (HepG2 cells [7]): +VE
- hLiMTs ATP <20 x Cmax (PHH spheroids): +VE (IC20 < 20 × Cmax.tot cut-off)
- In vivo DILI ([3]; […]): +VE
- In vivo DILI ([3]; ref Dawson 2012): +VE
- In vivo DILI ([3]; ref Garside 2014): +VE
- In vivo DILI ([3]; ref Gustafsson 2014): +VE
- In vivo DILI ([3]; ref Persson 2013): +VE
- In vivo DILI ([3]; ref Porceddu 2012): +VE
- In vivo DILI ([3]; ref Schadt 2015): +VE
- In vivo DILI ([3]; ref Vorrink 2018): +VE
- Cluster 1-6 +VE Assay [8]: +VE
- in vitro data EC2<=1x Cmax [9]: +VE
- in vitro data EC20<=2uM [9]: +VE
- Inhibition of rBsep cutoff<1& cmax u>.2 (rBsep): +VE
- Inhibition of rBsep cutoff<3 (rBsep): +VE

SMILES: Cc1c(N(C)C)c(=O)n(-c2ccccc2)n1C [aminopyrine]
- Bayesian Machine Learning ([1]; ref Williams 2019): +VE

SMILES: CN1[C@@H]2CC[C@H]1C[C@@H](OC(c1ccccc1)c1ccccc1)C2 [benztropine]
- PHH ATP <100uM (PHH): +VE (IC50 threshold of 100 µM)
- Bayesian Machine Learning ([1]; ref Williams 2019): -VE
- Ro2 Hybrid HRM Score [2]: -VE
- DILI +VE (5-8), DILI -VE (-4) [5]: -VE
- DILI severity category [5]: vNo-DILI-Concern
- In vivo DILI ([3]; ref Aleo 2019): -VE
- In vivo DILI ([3]; ref Proctor 2017): -VE
- In vivo DILI ([3]; ref Williams 2019): -VE
- hLiMTs ATP <100uM (hLiMTs): +VE (IC50 threshold of 100 µM)

SMILES: CC(C)(Oc1ccc(CCNC(=O)c2ccc(Cl)cc2)cc1)C(=O)O [bezafibrate]
- THLE-Null [4]: -VE
- THLE-Null/3A4 [4]: -VE
- Cellular toxicity (3T3 cells) [6]: -VE
- Combined Assay [6]: -VE
- GSH adduct HML [6]: -VE
- Hepatocyte cellular toxicity [6]: -VE
- MitoTox 3T3 [6]: -VE
- TDI CYP3A4 [6]: -VE
- hBSEP inhibition [6]: -VE
- hLiMTs ATP <20 x Cmax (PHH spheroids): -VE
- In vivo DILI ([3]; ref Dawson 2012): +VE
- In vivo DILI ([3]; ref Garside 2014): +VE
- In vivo DILI ([3]; ref Gustafsson 2014): +VE
- In vivo DILI ([3]; ref O'Brien 2006): -VE
- In vivo DILI ([3]; ref Schadt 2015): -VE
- In vivo DILI ([3]; ref Vorrink 2018): -VE
- In vivo DILI ([3]; ref Xu 2008): -VE
- Structural based (HCI) (HepG2 cells [10]): +VE
- Cluster 1-6 +VE Assay [8]: -VE
- Structural based (HCI) (human hepatocytes): -VE
- Inhibition of rBsep cutoff<1& cmax u>.2 (rBsep): -VE
- Inhibition of rBsep cutoff<3 (rBsep): -VE

SMILES: O=C1[C@H](CC[C@H](O)c2ccc(F)cc2)[C@@H](c2ccc(O)cc2)N1c1ccc(F)cc1 [ezetimibe]
- Bayesian Machine Learning [1, 11]: -VE
- DILI +VE (5-8), DILI -VE (-4) [5]: +VE
- DILI severity category [5]: vLess-DILI-Concern
- In vivo DILI ([3]; ref Williams 2019): +VE

SMILES: Nc1nc(F)nc2c1ncn2[C@@H]1O[C@H](CO)[C@@H](O)[C@@H]1O [fludarabine]
- PHH ATP <100uM (PHH): -VE
- Bayesian Machine Learning [1]: -VE
- DILI +VE (5-8), DILI -VE (-4) [5]: -VE
- DILI severity category [5]: vNo-DILI-Concern
- In vivo DILI ([3]; ref Proctor 2017): -VE
- In vivo DILI ([3]; ref Williams 2019): -VE
- hLiMTs ATP <100uM (hLiMTs): +VE (IC50 threshold of 100 µM)

SMILES: O=C(NC1CCN(CCc2c[nH]c3ccccc23)CC1)c1ccccc1 [indoramin]
- PHH ATP <100uM (PHH): -VE
- Bayesian Machine Learning ([1]; ref Williams 2019): -VE
- In vivo DILI ([3]; ref Proctor 2017): -VE
- In vivo DILI ([3]; ref Williams 2019): -VE
- hLiMTs ATP <100uM (hLiMTs): -VE

SMILES: CC(C)NNC(=O)c1ccncc1 [iproniazid, reference compound]
- THLE-Null [4]: -VE
- THLE-Null/3A4 [4]: -VE
- Partition Hybrid HRM Score [2]: -VE
- Ro2 Hybrid HRM Score [2]: -VE
- DILI +VE (5-8), DILI -VE (-4) [5]: +VE
- DILI severity category [5]: vMost-DILI-Concern
- Cluser analysis (HepG2 cells [7]): -VE
- Structural based (HCI) (HepG2 cells [7]): +VE
- response of PHH spheroids at 5 × Cmax.tot (PHH spheroids; ATP, 14 days, not positive at higher concentrations, ref Vorrink et al. 2018): positive
- hLiMTs ATP <20 x Cmax (PHH spheroids): -VE
- In vivo DILI ([3]; […]): +VE
- In vivo DILI ([3]; ref Aleo 2019): +VE
- In vivo DILI ([3]; ref Dawson 2012): +VE
- In vivo DILI ([3]; ref Garside 2014): +VE
- In vivo DILI ([3]; ref Gustafsson 2014): +VE
- In vivo DILI ([3]; ref Persson 2013): +VE
- In vivo DILI ([3]; ref Vorrink 2018): +VE
- Cluster 1-6 +VE Assay [8]: -VE
- Inhibition of rBsep cutoff<1& cmax u>.2 (rBsep): -VE
- Inhibition of rBsep cutoff<3 (rBsep): -VE

SMILES: Cc1ccc(Cl)c(Nc2ccccc2C(=O)O)c1Cl [meclofenamate]
- Bayesian Machine Learning ([1]; ref Williams 2019): +VE
- In vivo DILI ([3]; ref Williams 2019): -VE
- In vivo DILI ([3]; ref Xu 2008): +VE
- Structural based (HCI) (human hepatocytes): +VE

SMILES: CN1C[C@H](CNC(=O)OCc2ccccc2)C[C@@H]2c3cccc4c3c(cn4C)C[C@H]21 [metergoline]
- Bayesian Machine Learning ([1]; ref Williams 2019): -VE

SMILES: CN1Cc2c(N)cccc2C(c2ccccc2)C1 (stereo not shown) [nomifensine]
- THLE-Null [4]: -VE
- Partition Hybrid HRM Score [2]: +VE
- Ro2 Hybrid HRM Score [2]: -VE
- DILI +VE (5-8), DILI -VE (-4) [5]: +VE
- DILI severity category [5]: vMost-DILI-Concern
- Cluser analysis (HepG2 cells [7]): -VE
- Structural based (HCI) (HepG2 cells [7]): -VE
- hLiMTs ATP <20 x Cmax (PHH spheroids): +VE (IC20 < 20 × Cmax.tot cut-off)
- In vivo DILI ([3]; ref Aleo 2019): +VE
- In vivo DILI ([3]; ref Dawson 2012): +VE
- In vivo DILI ([3]; ref Garside 2014): +VE
- In vivo DILI ([3]; ref Gustafsson 2014): +VE
- In vivo DILI ([3]; ref O'Brien 2006): -VE
- In vivo DILI ([3]; ref Persson 2013): +VE
- In vivo DILI ([3]; ref Vorrink 2018): +VE
- In vivo DILI ([3]; ref Xu 2008): +VE
- Structural based (HCI) (HepG2 cells [10]): -VE
- Cluster 1-6 +VE Assay [8]: -VE
- Structural based (HCI) (human hepatocytes): -VE
- Inhibition of rBsep cutoff<1& cmax u>.2 (rBsep): -VE

SMILES: O=c1[nH]c2ccccc2n1C1CCN(CCCC(c2ccc(F)cc2)c2ccc(F)cc2)CC1 [pimozide]
- PHH ATP <100uM (PHH): -VE
- Bayesian Machine Learning ([1]; ref Williams 2019): +VE
- DILI +VE (5-8), DILI -VE (-4) [5]: -VE
- DILI severity category [5]: vNo-DILI-Concern
- In vivo DILI ([3]; ref O'Brien 2006): -VE
- In vivo DILI ([3]; ref Proctor 2017): +VE
- In vivo DILI ([3]; ref Williams 2019): +VE
- Structural based (HCI) (HepG2 cells [10]): -VE
- hLiMTs ATP <100uM (hLiMTs): +VE (IC50 threshold of 100 µM)

SMILES: CC(N/C(=N\C#N)Nc1ccncc1)C(C)(C)C (stereo not shown) [pinacidil]
- THLE-Null [4]: -VE
- THLE-Null/3A4 [4]: -VE
- Cluser analysis (HepG2 cells [7]): -VE
- Structural based (HCI) (HepG2 cells [7]): -VE
- hLiMTs ATP <20 x Cmax (PHH spheroids): -VE
- In vivo DILI ([3]; in vivo): -VE
- Structural based (HCI) (HepG2 cells [10]): -VE
- Cluster 1-6 +VE Assay [8]: +VE
- Structural based (HCI) (human hepatocytes): -VE
- Inhibition of rBsep cutoff<1& cmax u>.2 (rBsep): -VE
- Inhibition of rBsep cutoff<3 (rBsep): +VE

SMILES: CN(C)C(=O)Oc1ccc[n+](C)c1 [pyridostigmine]
- Bayesian Machine Learning [1]: -VE

SMILES: Cc1ncc(CO)c(CO)c1O [pyridoxine]
- THLE-Null [4]: -VE
- THLE-Null/3A4 [4]: -VE
- DILI +VE (5-8), DILI -VE (-4) [5]: -VE
- DILI severity category [5]: vNo-DILI-Concern
- Cluser analysis (HepG2 cells [7]): -VE
- Structural based (HCI) (HepG2 cells [7]): -VE
- hLiMTs ATP <20 x Cmax (PHH spheroids): -VE
- In vivo DILI ([3]; ref Dawson 2012): -VE
- In vivo DILI ([3]; ref Garside 2014): -VE
- In vivo DILI ([3]; ref Gustafsson 2014): -VE
- In vivo DILI ([3]; ref O'Brien 2006): -VE
- In vivo DILI ([3]; ref Persson 2013): -VE
- In vivo DILI ([3]; ref Vorrink 2018): -VE
- In vivo DILI ([3]; ref Xu 2008): -VE
- Structural based (HCI) (HepG2 cells [10]): +VE
- Cluster 1-6 +VE Assay [8]: -VE
- Structural based (HCI) (human hepatocytes): -VE
- Inhibition of rBsep cutoff<1& cmax u>.2 (rBsep): -VE
- Inhibition of rBsep cutoff<3 (rBsep): -VE

SMILES: Cc1cc2c(cc1CC(=O)c1sccc1S(=O)(=O)Nc1onc(C)c1Cl)OCO2 [sitaxentan]
- PHH ATP <100uM (PHH): -VE
- Bayesian Machine Learning [1, 11]: +VE
- Partition Hybrid HRM Score [2]: +VE
- Ro2 Hybrid HRM Score [2]: +VE
- DILI +VE (5-8), DILI -VE (-4) [5]: +VE
- DILI severity category [5]: vMost-DILI-Concern
- Cellular toxicity (3T3 cells) [6]: -VE
- Combined Assay [6]: +VE
- GSH adduct HML [6]: +VE
- Hepatocyte cellular toxicity [6]: +VE
- MitoTox 3T3 [6]: -VE
- TDI CYP3A4 [6]: +VE
- hBSEP inhibition [6]: +VE
- In vivo DILI ([3]; ref Aleo 2019): +VE
- In vivo DILI ([3]; ref Proctor 2017): +VE
- In vivo DILI ([3]; ref Schadt 2015): +VE
- In vivo DILI ([3]; ref Williams 2019): +VE
- hLiMTs ATP <100uM (hLiMTs): -VE
